Here are results for one sequence from patent US7645740B2, “Peptide sequence found in Laminin 5 for treating skin impairments” (Laboratoires d'Anjou Centre National de la Recherche …, priority 2004, dated 2010).

Series [1] in a line: Quantity of peptide immobilized on 96-well plates by amino acid analysis. The settings on record: 18 hours at +4° C. The procedure:
The peptide was diluted in sterile PBS. Samples containing the peptide to be assayed were lyophilized by evaporation. They were deposited in a reactor and placed under vacuum in order to eliminate oxygen likely to oxidize certain amino acids. Hydrolysis of the peptide bonds was carried out in a hydrochloric acid mixture (HCL 6N, ⅔), trifluoroacetic acid (TFA, ⅓) at 150° C. for 45 minutes. Gas hydrolysis prevented contamination by ions present in the acids. The samples were then dried and dissolved in a suitable buffer for ion-exchange chromatography (sodium citrate). Ion-exchange chromatography makes it possible to separate amino acids according to their ionic strength and, on leaving the column, they react with a reagent (ninhydrin) to form a dyed complex with primary amines (violet, readable at 570 nm). Ninhydrin also reacts with secondary amines (proline, hydroxyproline) to form a yellow compound that can be read at 440 nm. Two separate chromatograms allow the samples to be analysed.
A semi-automatic Beckman 6300 analyser optimised for this analysis was used along with Beckman Gold software in order to quantify the chromatograms. […]
FIG. 17 gives the data obtained in the experiments aimed at identifying the assay conditions for the peptide deposited in 96-well plates and not immobilized. Five experiments were carried out with decreasing quantities of peptide, from 5 μg to 0.7 μg. […]

In series [2] the test system is HT1080 cells (human fibrosarcoma). As to the kind of experiment: Cell adhesion test to immobilized peptides, HT1080. It is filed as cell-based. On the procedure: Dose-dependent cell adhesion of cell line HT1080 to various peptides 1, 2 and 3. The peptides were immobilized in 96-well plates at the concentrations given on the abscissa. 8×10^4 cells were deposited in each well and plates were incubated at 37° C. for 1 hour. After washing, attached cells were fixed and cell adhesion was measured as described in the methodology section.
Dose-dependent cell adhesion of HT1080 cells to various peptide TALRIRATYGEY (SEQ ID NO. 1). The peptides were immobilized in 96-well plates in the quantities given on the abscissa. 8×10^4 cells and 15×10^4 cells were deposited in each well and plates were incubated at 37° C. for 1 hour. After washing, attached cells were fixed and cell adhesion was measured as described in the methodology section. Cells were observed by phase contrast microscopy then photographed. Bar =50 μm
Peptides 1, 2 and 3 were used for the cell adhesion experiments. A range of 7 decreasing concentrations (100 micrograms/ml, 50 micrograms/ml, 25 micrograms/ml, 12.5 micrograms/ml, 6.25 micrograms/ml, 3.125 micrograms/ml and 1.562 micrograms/ml) was made up by successive dilution in PBS (Phosphate Buffer Saline, KH2PO4 1.54 mM; Na2HPO4 1.42 mM; NaCl-131 mM) using a starting solution at a concentration of 1 mg/ml. These solutions were immediately distributed onto a 96-well culture plate (Greinher, Dutscher, Brumath, France) at a rate of 100 μl per well. Plates were then placed at +4° C. for 16 to 18 hours. The solutions were then removed by turning the plates and each well was saturated with a 1% PBS-BSA solution (bovine serum albumin). Three additional wells without the substrate underwent the same treatment and were used as blanks.
Epithelial cells were detached from the culture dishes using a trypsin/EDAT solution (0.05-0.02%) then suspended in DMEM medium without additives for the cell lines and in KBM-2 without additive for human keratinocytes. The number of seeded cells per well is given in the graphs (50,000 to 100,000 cells per well).
After cell seeding, the multi-well plates were placed in an incubator at 37° C. under 5% CO2. After incubation for 30 to 60 minutes, cells were observed under a phase contrast microscope in order to verify that the test was conducted correctly. The adhesion medium was then removed and each well was washed in a sterile PBS solution to remove non-adhering cells. The remaining cells, attached to the substrate, were then fixed using a solution of 1% glutaraldehyde in PBS for 15 minutes. The glutaraldehyde solution as removed and the cells were stained with a crystal violet solution diluted to 1% in distilled water for 30 minutes.
After rinsing in water several times, cells were permeabilized by means of a 0.02% triton solution for 15 minutes in order to solubilize the crystal violet. Absorbances were read at 570 nm using an ELISA plate reader (MR500, Dynatech, Guernsey, Channel Islands). Each experimental point was carried out in triplicate. The blank value represented the mean absorbance of 3 control wells (BSA). […] We then calculated the mean for the three absorbance values for each of the triplicate samples.
The results are presented in the form of a graph with the absorbance values on the ordinate and the various substrate concentrations on the abscissa. […]
A second approach was taken in order to determine the minimum quantity of active peptide and the number of adhering cells was increased in order to obtain a confluent cell network. […]

Regarding “TALRIRATYGEY (Human laminin 5) [Peptide 1]”, the “quantity of peptide remaining in the supernatant after immobilization, of quantity added” value in series [1] (3.55 μg, 2.56 μg, 1.23 μg and 0.73 μg deposited) is given as “approximately 90%”. In addition, the “mean quantity remaining in solution in the wells” value in series [1] (Q1, average starting quantity 2.44 μg, five supernatants) amounted to 2.212 µg. For the same sequence, in series [2] (HT1080, 0 to 10 micrograms immobilized peptide, 8×10^4 cells per well, 1 hour 37° C., absorbance 570 nm), the “cell adhesion to immobilized peptide” value is listed as “led to cell adhesion”. For the same sequence, in series [2] (HT1080, FIG. 3), the “immobilized peptide quantity at which adhesion occurred” value is reported as 0.15 micrograms and the “immobilized peptide quantity at which maximum adhesion was achieved” value is reported as 0.15 micrograms.
